Experimental data: patent publication US10399949B2, “NK1 receptor antagonist” (KISSEI PHARMACEUTICAL CO., LTD., priority 2015, dated 2019)

Key:
human NK1 receptor [1] = target: T1, human NK1 receptor (Homo sapiens, UniProt P25103); test: Affinity for human NK1 receptor (125I-substance P receptor binding test, membrane fraction); conditions: membrane fraction of human NK1 receptor-expressing 293T cells, room temperature 60 minutes, read-out: pIC50 (inverse logarithm of the concentration required for 50% inhibition of 125I-substance P binding) (converted)
T1 construct: expressed in transfected cells; host or cells: 293T cells (RIKEN), transient transfection with pcDNA3.1(-) plasmid
Procedure: Affinity for Human NK1 Receptor
(3) Measurement of Binding Affinity to Human NK1 Receptor
(3-1) Preparation of Membrane Fraction from Human NK1 Receptor-Expressing Cells
Human NK1 receptor-expressing cells were prepared in a 175 cm^2 culture flask (Nippon Becton Dickinson). The formation of a complex of the human NK1 receptor expression plasmid and Lipofectamine 2000 was performed by calculating the culture area ratio and increasing the scale of the method described in the above 2-4 by the ratio. The human NK1 receptor-expressing cells were collected in a buffer solution for the membrane fraction preparation (50 mM Tris (Wako Pure Chemical), 120 mM sodium chloride (Wako Pure Chemical Industries), 5 mM potassium chloride (Wako Pure Chemical Industries), 1 mM ethylenediaminetetraacetic acid (Sigma), 0.002 mg/mL chymostatin (Peptide Institute), 0.04 mg/bacitracin (Wako Pure Chemical Industries), 0.005 mg/mL phosphoramidon (Peptide Institute) and 0.5 mM phenylmethylsulfonyl fluoride (Wako Pure Chemical Industries), pH7.4) and centrifuged at 1,880 g for 10 minutes, and the cell sediment was suspended in the buffer solution for the membrane fraction preparation. After freezing and thawing the cells once, the cells were homogenized using a Dounce-type homogenizer (cooled on ice, 1000 rpm, 20 times). The homogenized cell suspension was centrifuged at 20,000 rpm for 10 minutes, and the supernatant was removed to obtain cell sediment. The cell sediment was suspended again in the buffer solution for the membrane fraction preparation and homogenized using a Dounce-type homogenizer (cooled on ice, 1000 rpm, 30 times). The cell suspension was centrifuged at 20,000 rpm for 10 minutes, and the supernatant was removed to obtain cell sediment. The same homogenization and centrifugation were repeated again, and final cell sediment was obtained. The final cell sediment was suspended in a buffer solution for the receptor binding test (50 mM Tris (Wako Pure Chemical Industries), 3 mM manganese chloride (Wako Pure Chemical Industries), 0.002 mg/mL chymostatin (Peptide Institute), 0.04 mg/bacitracin (Wako Pure Chemical Industries) and 0.02% bovine serum albumin (Sigma), pH 7.4), and the protein concentration was measured using BCA Protein Assay Kit (Pierce).
(3-2) Receptor Binding Test
The buffer solution for the receptor binding test was dispensed to the wells of a 96-well assay plate (Greiner) at 22.5 μL/well. DMSO solutions of a test compound, which were prepared at an 80-time higher concentration using 100% dimethyl sulfoxide (DMSO), were added to the wells at 2.5 μL/well (final concentrations of 1 nM to 100 nM), and the solutions were mixed. As a radiolabeled ligand, ^125I-substance P (Substance P, [^125I]Tyr^8-, PerkinElmer) was used. ^125I-substance P was diluted with the buffer solution for the receptor binding test to a concentration resulting in […] and added to the 96-well assay plate, and the solutions were mixed. The membrane fraction prepared from the human NK1 receptor-expressing cells was diluted with the buffer solution for the receptor binding test to a concentration resulting in 8 to 10 μg/well, suspended until the suspension became in such a homogenous state that the suspension could flow through a 27G injection needle smoothly and then added to the 96-well assay plate at 150 μL/well. Then, the plate was incubated at room temperature for 60 minutes while shaking the plate. […]

human NK1 receptor [2] = target: T1, human NK1 receptor; test: Inhibitory effect on human NK1 receptor (substance P-induced increase in intracellular calcium concentration); assay type: cell-based; conditions: HEK-293T; substance P 0.1 μM; compound 1 μM; human NK1 receptor-expressing 293T cells; vehicle = 100%; read-out: SPRR (%) (Substance P-Response Remaining, intracellular calcium concentration)
Procedure: Inhibitory Effect on Human NK1 Receptor
(1) Preparation of Human NK1 Receptor-Expressing Cells
Human NK1 receptor-expressing cells were prepared by the same methods as those described in 2-3 and 2-4 of Test Example 1.
(2) Study on Inhibitory Effect on Increase in Intracellular Calcium Concentration
The human NK1 receptor-expressing cells were washed with 300 μL/well of a washing solution (20 mM HEPES/Hanks Balanced Salt Solution (HBSS) pH7.3). A fluorescent calcium indicator (Fluo-4 Direct Calcium Assay Kit, Life Technologies, containing 0.42 mM probenecid and 0.1% bovine serum albumin, prepared according to the protocol of the product) was added to the wells at 150 μL/well, and the plate was incubated at 37° C. for 30 minutes in an incubator. Then, DMSO solutions of a test compound, which were prepared at an 80-time higher concentration using 100% dimethyl sulfoxide (DMSO), were added to the wells at 2.5 μL/well (final concentrations of 0.1, 1 and 10 μM), and the solutions were mixed. Then, the plate was further incubated at 37° C. for 30 minutes in an incubator. After 30 minutes, the intracellular calcium concentrations were measured immediately.
The intracellular calcium concentrations were each measured as a fluorescent signal using FDSS® 7000 (Hamamatsu Photonics). A substance P (Peptide Institute, Inc.) solution which was prepared at 0.4 μM or 4 μM using an assay buffer (20 mM HEPES/Hanks Balanced Salt Solution (HBSS) pH 7.3 containing 0.1% bovine serum albumin) was added automatically to each well at 50 μL/well (final concentration of 0.1 or 1 μM) 10 seconds after starting reading, and the fluorescent signal was measured up to 120 seconds.
The intracellular calcium concentration (%) of the cells to which a test compound was added was calculated by the equation below, where the fluorescent signal of the group to which the vehicle (DMSO) was added was regarded as 100%, and the fluorescent signal before the addition of substance P was regarded as 0%. Intracellular calcium concentration (%)=(Fluorescent signal of test compound addition group)/(Fluorescent signal of vehicle addition group)×100
The intracellular calcium concentration (%) calculated was regarded as the remaining agonist activity of substance P (Substance P-Response Remaining: SPRR). In the table, Ex. No. means the Example number. SPRR (%) means the value obtained when the concentration of substance P was 0.1 μM and the concentration of the compound was 1 μM.

human CYP3A4 = target: T2, human CYP3A4 (Homo sapiens, UniProt P08684); test: Inhibitory effect on CYP3A4 (Luciferin-IPA); assay type: in vitro ADME; conditions: test compound 10 μM, 30-minutes pre-incubation, Luciferin-IPA 3 μM
T2 construct: purchased BD Biosciences
Procedure: Inhibitory Effect on CYP3A4
The dimethyl sulfoxide (DMSO) solution of the test compound with a concentration 1000 times higher than the evaluation concentration was prepared, and a reaction solution was prepared by diluting the solution. Enzyme reaction was performed by incubating in a potassium phosphate buffer solution (pH 7.4) containing 1 μM to 10 μM test compound, 3.2 mM magnesium chloride, 0.2 pmol human CYP3A4 (BD Biosciences), 0.5 mM reduced nicotinamide adenine dinucleotide phosphate (NADPH) and 3 μM Luciferin-IPA (Promega) at 37° C. for 10 minutes. The volume of the reaction solution was 50 μL/well. The 30-minutes pre-incubation group was incubated at 37° C. for 30 minutes before adding the substrate, the Luciferin-IPA solution (12.5 μL/well). At the end of the enzyme reaction, 50 μL/well of a Luciferin detection reagent (Promega) was added to the wells, and the plate was left at room temperature for 20 minutes. Then, the emission intensities were measured with Infinite M1000 (TECAN), and the enzyme activities (%) relative to the value of the group to which the test compound was not added. As a comparative example, aprepitant, which is an NK1 receptor antagonist, was tested in the same manner.
Test was measured by the above test method, and the results are shown in Table 9 when the concentration of the test compound was 10 μM. In the table, Ex. No. means the Example number, and Pre-incubation (30 min) (%) means the enzyme activities (%) of the 30-minutes pre-incubation groups using the test compounds.

T1 sequence (P25103 whole entry): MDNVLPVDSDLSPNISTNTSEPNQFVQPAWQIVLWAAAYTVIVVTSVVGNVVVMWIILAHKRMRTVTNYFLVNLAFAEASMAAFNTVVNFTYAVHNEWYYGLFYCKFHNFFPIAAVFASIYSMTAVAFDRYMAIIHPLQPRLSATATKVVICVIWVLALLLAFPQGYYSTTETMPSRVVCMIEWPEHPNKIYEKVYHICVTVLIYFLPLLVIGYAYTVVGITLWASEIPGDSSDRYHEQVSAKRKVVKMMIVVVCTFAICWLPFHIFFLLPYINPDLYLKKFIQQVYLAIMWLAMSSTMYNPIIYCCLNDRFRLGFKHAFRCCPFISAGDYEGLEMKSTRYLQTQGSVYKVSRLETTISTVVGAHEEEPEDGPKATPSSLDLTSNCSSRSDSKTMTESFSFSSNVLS
T2 sequence (P08684 whole entry): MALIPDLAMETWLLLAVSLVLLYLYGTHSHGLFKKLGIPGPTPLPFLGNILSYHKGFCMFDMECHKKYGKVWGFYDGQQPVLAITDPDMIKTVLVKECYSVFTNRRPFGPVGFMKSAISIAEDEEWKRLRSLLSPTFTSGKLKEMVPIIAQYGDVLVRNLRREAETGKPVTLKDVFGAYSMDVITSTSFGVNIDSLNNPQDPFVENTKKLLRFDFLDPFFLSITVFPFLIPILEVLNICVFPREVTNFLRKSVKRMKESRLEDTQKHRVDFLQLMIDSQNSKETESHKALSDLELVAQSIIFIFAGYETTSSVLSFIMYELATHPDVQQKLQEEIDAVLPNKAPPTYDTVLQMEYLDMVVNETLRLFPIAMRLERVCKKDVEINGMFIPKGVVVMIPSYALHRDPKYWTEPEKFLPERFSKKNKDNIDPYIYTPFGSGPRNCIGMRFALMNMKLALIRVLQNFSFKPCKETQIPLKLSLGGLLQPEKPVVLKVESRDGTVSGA

SMILES	IC50 (human NK1 receptor [1]) [nM]	remaining activity at 1 µM (human NK1 receptor [2]) [%]	Preincubation (30 min) (%) (enzyme activities relative to group without test compound) (human CYP3A4)
Cc1cc(F)ccc1[C@H]1CN(C[C@H]2CC[C@@H](CC(=O)O)CC2)CC[C@@H]1C(=O)N(C)[C@@H](C)c1cc(C(F)(F)F)cc(C(F)(F)F)c1 [Example 13, cis-{4-[(3S,4S)-4-{[(S)-1-(3,5-Bistrifluoromethylphenyl)ethyl]methylcarbamoyl}-3-(4-fluoro-2-methylphenyl)piperidin-1-ylmethyl]cyclohexyl}acetic acid]	0.646	4.1	18
Cc1cc(F)ccc1[C@H]1CN(C[C@H]2CC[C@H](CC(=O)O)CC2)CC[C@@H]1C(=O)N(C)[C@@H](C)c1cc(C(F)(F)F)cc(C(F)(F)F)c1 [Example 14, trans-{4-[(3 S,4S)-4-{[(S)-1-(3,5-Bistrifluoromethylphenyl)ethyl]methylcarbamoyl}-3-(4-fluoro-2-methylphenyl)piperidin-1-ylmethyl]cyclohexyl}lacetic acid]	1.35	14	15
